Source: patent US20050282818A1, “Ubiquitin ligase inhibitors” (Rigel Pharmaceuticals, Inc., priority 2004, published 2005)

Assays:
[1] = molecular target: APC11/APC2 (Homo sapiens, UniProt Q9NYG5+Q9UJX6); assay: APC-11/APC-2 ligase assay (APC auto ubiquitination); format: biochemical; conditions: APC assay
Protocol: For the assays described below, the TRAF6/Uev1A/UBC13 assay is the biochemical plate-based assay of TRAF6 ligase activity using Ubc13 as the E2 enzyme. The gel-based assay is the biochemical solution-based TRAF6 ligase assay (by SDS-PAGE and Western blot) to confirm the plate-based ELISA assay. The APC assay is an assay which is another E3 ligase (APC2/APC11) biochemical assay.
E3 (His APC11/APC2— “APC”) auto ubiquitination was measured as described in U.S. patent application Ser. No. 09/826,312 (Publication No. U.S. 2002 0042083 A1), which is incorporated by reference in its entirety. Details of the protocol are described below. Activity in the presence of the compound was determined relative to a parallel control in which only DMSO was added. Values of the IC50 were typically determined using 6 or 8 different concentrations of the compound, although as few as 2 concentrations may be used to approximate the IC50 value.
Nickel coated 96 well plates (Pierce 15242) were blocked for 1 hour with 100 μl of blocking buffer at room temperature. The plates were washed 4 times with 225 μl of 1 […]PBS and 80 μl of the reaction buffer were added that contained 100 ng/well of Flag ubiquitin. To this, 10 μl of the test compound diluted in DMSO were added. After the test compound was added, 10 μl of E1 (human), E2 (Ubch5c), and APC in Protein Buffer was added to obtain a final concentration of 5 ng/well of E1, 20 ng/well of E2 and 100 ng/well of APC. The plates were shaken for 10 minutes and incubated at room temperature for 1 hour. After incubation, the plates were washed 4 times with 225 μl of 1×PBS and 100 μl/well of Antibody Mix were added to each well. The plates were incubated at room temperature for another hour after which they were washed 4 times with 225 μl of 1×PBS and 100 μl/well of Lumino substrate were added to each well. The luminescence was measured by using a BMG luminescence microplate reader. The Blocking Buffer (1% Casein in 1×PBS) was stored at 4° C. until use.
The reaction buffer consisted of 62.5 mM Tris pH 7.6 (Trizma Base—Sigma T 8524), 3 mM MgCl2 (Magnesium Chloride—Sigma M 2393), 1 mM DTT (Sigma D 9779), 2.5 mM ATP (Roche Boehringer Mann Corp. 635 316), 100 ng/well of Flag ubiquitin, 0.1% BSA (Sigma A 7906), and 0.05% Tween 20 (Sigma P 7949).
The Protein Buffer consisted of 20 mM Tris pH 7.6, 10% glycerol (Sigma G 5516) and 1 mM DTT.
The antibody mix consisted of 0.25% BSA (Sigma A 7906) in 1×PBS, 1/50,000 anti Flag (Sigma F 3165), 1/100,000 of anti Mouse IgG HRP (Jackson Imrunoresearch #115 035 146).
The substrate mix consisted of SuperSignal Substrate from Pierce (catalog number 37070ZZ) and was prepared by mixing 100 ml of the peroxide solution, 100 ml of the enhancer solution and 100 ml of Milli Q® water.

[2] = molecular target: T1, TRAF6/Uev1A/Ubc13 (Homo sapiens, UniProt Q9Y4K3); assay: TRAF6/Uev1A/Ubc13 plate-based ubiquitin ligase assay; format: biochemical
T1 sequence (Q9Y4K3 1-522): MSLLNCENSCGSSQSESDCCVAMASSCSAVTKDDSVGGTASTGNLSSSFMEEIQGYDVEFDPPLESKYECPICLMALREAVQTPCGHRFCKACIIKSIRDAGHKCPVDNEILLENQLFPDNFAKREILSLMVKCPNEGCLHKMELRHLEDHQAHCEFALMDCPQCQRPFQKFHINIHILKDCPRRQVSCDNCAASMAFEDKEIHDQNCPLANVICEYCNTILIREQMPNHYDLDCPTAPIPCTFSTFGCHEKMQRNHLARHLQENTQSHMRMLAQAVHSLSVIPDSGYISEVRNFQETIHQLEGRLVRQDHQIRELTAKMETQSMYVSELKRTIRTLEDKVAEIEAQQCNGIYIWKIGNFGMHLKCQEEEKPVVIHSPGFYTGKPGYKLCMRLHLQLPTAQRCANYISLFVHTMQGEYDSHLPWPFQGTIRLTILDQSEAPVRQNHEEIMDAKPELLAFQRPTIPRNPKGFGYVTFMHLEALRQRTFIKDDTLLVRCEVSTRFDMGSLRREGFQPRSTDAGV
Summary of the method: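 Ligase activity was read as luminescence from anti-Flag/HRP detection of Flag-ubiquitin bound to casein-blocked Ni-plates alongside His-ubiquitin after a 1 h room-temperature reaction. Buffer: 62.5 mM Tris pH 7.5, 6.25 mM MgCl2, 1.0 mM DTT, 2 μM ATP; E1, Uev1a/Ubc13 and TRAF6 added last to start. IC50s derived across compound concentrations.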

[3] = tested on: ICAM-1 expression in A549 cells; assay: ICAM assay (IL-1 induced ICAM-1/CD54 expression in A549 cells); format: cell-based, human
Excerpt: The expression of intercellular adhesion molecule (ICAM)-1 in endothelial cells is pivotal in supporting lymphocyte migration across the vascular endothelium. TNF/IL-1 induces the NF-kB pathway in which NF-kB acts as a transcription factor and activation of NF-kB induces ICAM expression. IkB inhibits NF-KB by binding to it and retaining NF-kB in the cytoplasm. Upon cytokine stimulation, several signaling molecule including TRAF6, IKKs, and TAK1 are activated which lead to the phosphorylation of IkB. Phosphorylated IkB is then ubiquitinated by the SCF complex and degraded by proteasome, thereby releasing NF-kB to translocate into the nucleus. In the nucleus, NF-kB binds to DNA and activates transcription of various genes that are involved in inflammation, cell survival, and apoptosis. The ICAM assay is a primary assay for HTS as well as a cell based assay for TRAF6 inhibitors.
The following materials are used 96-well plates; F12K complete medium that includes 10% FBS and 1% P/S (penicillin/streptomycin); 1×PBS; 5 ug/ml IL-1, Human CD54 (CALTAG Laboratory, Cat#MHCD5400-4); anti-mouse-IgG (Jackson Lab, Cat#115-035 146); and A549 cells.
Procedure. 10,000 A549 cells/well were seeded in 100 μl F12K complete medium in a 96-well white plate. The seeded plate was incubate at 37° C. incubator in 5% CO2 overnight. After the overnight incubation, 4 μl of diluted test compound was added and incubated for 1 hour at 37° C. After the 1 hour incubation, 4 μl of 25 ng/ml IL-1 was added to each well and the cells were stimulated at 37° C. for 4 hours.
After stimulation, the cells were stained with CD54 (1:1000 diluted with medium) and anti-mouse IgG (1:1100 diluted with medium) for 1 hour. Subsequently, the medium was removed and each well was washed with 200 μl of PBS three times. Detection of activity was performed by addition of 100 μl/well of lumino substrate.

Chain of APC11/APC2 (Q9NYG5 whole entry): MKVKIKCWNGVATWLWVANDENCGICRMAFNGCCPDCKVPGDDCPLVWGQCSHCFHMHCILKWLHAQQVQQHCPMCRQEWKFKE
Chain of APC11/APC2 (Q9UJX6 whole entry): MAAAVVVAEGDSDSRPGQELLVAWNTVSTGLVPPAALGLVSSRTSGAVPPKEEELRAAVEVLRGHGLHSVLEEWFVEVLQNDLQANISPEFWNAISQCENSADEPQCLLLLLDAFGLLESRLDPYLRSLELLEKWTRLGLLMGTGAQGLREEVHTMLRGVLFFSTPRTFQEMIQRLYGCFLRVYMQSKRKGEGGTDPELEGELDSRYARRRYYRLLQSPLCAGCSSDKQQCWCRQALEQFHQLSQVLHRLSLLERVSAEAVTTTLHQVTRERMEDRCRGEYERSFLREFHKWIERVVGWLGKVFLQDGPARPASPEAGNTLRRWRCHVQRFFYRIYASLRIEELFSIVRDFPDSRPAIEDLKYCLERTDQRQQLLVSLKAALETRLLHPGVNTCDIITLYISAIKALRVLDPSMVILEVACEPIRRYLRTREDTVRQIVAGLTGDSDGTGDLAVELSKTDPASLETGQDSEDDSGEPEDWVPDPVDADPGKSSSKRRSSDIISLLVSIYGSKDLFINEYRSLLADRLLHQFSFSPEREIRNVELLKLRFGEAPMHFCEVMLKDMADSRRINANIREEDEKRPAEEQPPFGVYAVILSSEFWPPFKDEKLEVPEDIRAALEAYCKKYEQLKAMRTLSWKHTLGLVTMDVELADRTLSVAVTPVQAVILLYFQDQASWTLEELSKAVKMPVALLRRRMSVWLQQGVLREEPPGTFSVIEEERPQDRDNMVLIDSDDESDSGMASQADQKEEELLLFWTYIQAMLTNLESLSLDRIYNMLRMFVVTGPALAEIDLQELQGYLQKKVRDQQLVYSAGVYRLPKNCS

Row | Compound | IC50 [1] [µM] | IC50 [2] [µM] | IC50 ([3]; Homo sapiens, A549, ICAM assay) [µM] | IC50 ([3]; ICAM assay) [µM]
1 | O=[N+]([O-])c1ccc(N2CCN(c3cnccn3)CC2)c2nonc12 [compound 84] | 1 to 20 | 1 to 20 |  | 
2 | N#Cc1cccnc1N1CCN(S(=O)(=O)c2c(Sc3cccc4cccnc34)ccc3nonc23)CC1 [compound 183, 2-(4-{[5-(quinolin-8-ylthio)-2,1,3-benzoxadiazol-4-yl]sulfonyl}piperazin-1-yl)nicotinonitrile] | 1 to 20 | 1 to 20 |  | 
3 | O=c1[nH]c2ccccc2n1C1CCN(S(=O)(=O)c2ccc(Sc3cccc4cccnc34)c3nonc23)CC1 [compound 190, 1-(1-{[7-(quinolin-8-ylthio)-2,1,3-benzoxadiazol-4-yl]sulfonyl}piperidin-4-yl)-1,3-dihydro-2H-benzimidazol-2-one] | 1 to 20 | 1 to 20 |  | 
4 | O=S(=O)(c1ccc(Sc2cccc3ccccc23)c2nonc12)N1CCC2(CC1)OCc1ccccc12 [compound 334, 1′-{(7-[naphth-1-ylthio]-2,1,3-benzoxadiazol-4-yl)}sulfonyl-3H-spiro[2-benzofuran-1,4′-piperidine]] | ≥ 20 | ≥ 20 | 1 to 20 | 
5 | COC(=O)c1ccc(NS(=O)(=O)c2ccc(Sc3ccc(O)cc3)c3nonc23)cc1 [compound 335, methyl 4-{[(7-{[4-hydroxyphenyl]thio}-2,1,3-benzoxadiazol-4-yl)sulfonyl]amino}benzoate] | ≥ 20 | ≥ 20 | ≥ 20 | 
6 | Clc1cc(Sc2cccc3cccnc23)cc2nonc12 [compound 336, 8-[(4-chloro-2,1,3-benzoxadiazol-6-yl)thio]quinoline] | ≥ 20 | ≥ 20 | ≥ 20 | 
7 | O=S(=O)(Nc1ccccc1F)c1ccc(Cl)c2nonc12 [compound 345, 7-chloro-N-(2-fluorophenyl)-2,1,3-benzoxadiazole-4-sulfonamide] | ≥ 20 | ≥ 20 | 1 to 20 | 
8 | Cc1c(NS(=O)(=O)c2ccc(Cl)c3nonc23)cccc1C(F)(F)F [compound 350, 7-chloro-N-(2-methyl-3-[trifluoromethyl]phenyl)-2,1,3-benzoxadiazole-4-sulfonamide] | ≥ 20 | ≥ 20 | 1 to 20 | 

Now from value to compound:

Row | IC50 [1] [µM] | IC50 [2] [µM] | IC50 ([3]; Homo sapiens, A549, ICAM assay) [µM] | IC50 ([3]; ICAM assay) [µM] | Compound
9 | 1 to 20 | 1 to 20 |  |  | O=[N+]([O-])c1ccc(Sc2cccc(Cl)c2)c2nonc12 [compound 149, 4-[(3-chlorophenyl)thio]-7-nitro-2,1,3-benzoxadiazole]
10 | 1 to 20 | 1 to 20 |  |  | Cc1ccc(Sc2ccc([N+](=O)[O-])c3nonc23)cc1 [compound 157, 4-[(4-methylphenyl)thio]-7-nitro-2,1,3-benzoxadiazole]
11 | 1 to 20 | ≥ 20 | 1 to 20 |  | O=[N+]([O-])c1ccc(-c2cc(F)cc(F)c2)c2nonc12 [compound 308, 4-[(3,5-Difluoro)phenyl]-7-nitro-2,1,3-benzoxadiazole]
12 | 1 to 20 | 1 to 20 | 1 to 20 |  | O=[N+]([O-])c1ccc(-c2ccc(C(F)(F)F)cc2)c2nonc12 [compound 311, 4-Nitro-7-[4-(trifluoromethyl)phenyl]-2,1,3-benzoxadiazole]
13 | 1 to 20 | 1 to 20 | ≥ 20 |  | O=[N+]([O-])c1ccc(-c2ccc(C(F)(F)F)cc2C(F)(F)F)c2nonc12 [compound 312, 4-[2,4-Bis(trifluoromethyl)phenyl]-7-nitro-2,1,3-benzoxadiazole]
14 | 1 to 20 | ≥ 20 | ≥ 20 |  | O=C1OC2(CCN(S(=O)(=O)c3ccc(Cl)c4nonc34)CC2)c2ccccc21 [compound 332, 1′-{[7-chloro-(2,1,3-benzoxadiazol-4-yl)]sulfonyl}-3H-spiro[2-benzofuran-1,4′-piperidin]-3-one]
15 | ≥ 20 | ≥ 20 | < 1 |  | O=C1OC2(CCN(S(=O)(=O)c3c(Cl)ccc4nonc34)CC2)c2ccccc21 [compound 337, 1′-{[5-chloro-(2,1,3-benzoxadiazol-4-yl)]sulfonyl}-3H-spiro[2-benzofuran-1,4′-piperidin]-3-one]
16 | 1 to 20 | ≥ 20 | ≥ 20 |  | O=S(=O)(Nc1ccccc1F)c1ccc(Nc2ccccc2F)c2nonc12 [compound 346, N-(2-fluorophenyl)-7-(2-fluorophenylamino)-2,1,3-benzoxadiazole-4-sulfonamide]
17 | ≥ 20 | ≥ 20 | 1 to 20 |  | CC(C)c1ccccc1NS(=O)(=O)c1ccc(Cl)c2nonc12 [compound 347, 7-chloro-N-(2-isopropylphenyl)-2,1,3-benzoxadiazole-4-sulfonamide]
18 | ≥ 20 | ≥ 20 | 1 to 20 |  | COc1cc(NS(=O)(=O)c2ccc(F)c3nonc23)c(OC)cc1Cl [compound 348, N-(4-chloro-2,5-dimethoxyphenyl)-7-fluoro-2,1,3-benzoxadiazole-4-sulfonamide]
19 | 1 to 20 | ≥ 20 |  | ≥ 20 | COc1cc(Nc2ccc(S(=O)(=O)Nc3cc(OC)c(Cl)cc3OC)c3nonc23)c(OC)cc1Cl [compound 349, N-(4-chloro-2,5-dimethoxyphenyl)-7-([4-chloro-2,5-dimethoxyphenyl]amino)-2,1,3-benzoxadiazole-4-sulfonamide]
20 | ≥ 20 | ≥ 20 | 1 to 20 |  | Cc1ccc(F)cc1NS(=O)(=O)c1ccc(Cl)c2nonc12 [compound 351, 7-chloro-N-(5-fluoro-2-methylphenyl)-2,1,3-benzoxadiazole-4-sulfonamide]
